{"source": "patent US20060194814A1", "about": "“Benzamide compounds” (priority 2003, published 2006)", "target": "T1, HMG-CoA reductase (Mus musculus, UniProt Q01237)", "T1 construct": "endogenous in cells; host or cells: Y1 mouse adrenal tumor cells", "T1 sequence (Q01237 1-887)": "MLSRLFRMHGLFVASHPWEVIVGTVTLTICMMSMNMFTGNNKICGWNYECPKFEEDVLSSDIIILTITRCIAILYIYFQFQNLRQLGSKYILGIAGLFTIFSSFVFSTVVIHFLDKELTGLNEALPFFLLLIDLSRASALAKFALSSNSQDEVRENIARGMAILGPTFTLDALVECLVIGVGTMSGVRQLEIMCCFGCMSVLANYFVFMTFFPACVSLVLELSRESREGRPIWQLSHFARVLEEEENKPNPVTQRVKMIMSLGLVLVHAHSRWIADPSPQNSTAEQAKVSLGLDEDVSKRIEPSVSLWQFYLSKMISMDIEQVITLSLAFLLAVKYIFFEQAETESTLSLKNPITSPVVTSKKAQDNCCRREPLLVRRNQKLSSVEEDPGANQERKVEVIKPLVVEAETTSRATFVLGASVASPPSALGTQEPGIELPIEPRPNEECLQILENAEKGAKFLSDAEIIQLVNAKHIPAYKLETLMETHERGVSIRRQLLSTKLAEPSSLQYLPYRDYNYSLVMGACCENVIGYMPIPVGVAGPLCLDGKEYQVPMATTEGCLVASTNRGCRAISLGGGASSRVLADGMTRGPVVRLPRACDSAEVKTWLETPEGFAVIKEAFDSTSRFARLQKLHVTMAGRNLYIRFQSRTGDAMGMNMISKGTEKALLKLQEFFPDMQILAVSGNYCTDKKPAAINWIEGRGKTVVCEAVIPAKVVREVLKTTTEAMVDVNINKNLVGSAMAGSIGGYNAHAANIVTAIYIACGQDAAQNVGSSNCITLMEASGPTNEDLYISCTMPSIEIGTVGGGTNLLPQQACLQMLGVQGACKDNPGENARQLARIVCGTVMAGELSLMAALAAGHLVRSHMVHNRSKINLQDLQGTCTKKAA", "assay": "Direct effect on HMG-CoA reductase activity in sonicated Y1 cell homogenates", "type": "biochemical", "conditions": "sonicated Y1 cells", "method": "Cells were washed twice with ice-cold PBS and incubated with ice-cold assay buffer (0.1M sucrose, 40 mM KH2PO4, 30 mM EDTA, 50 mM KCl, 5 mM DTT, 0.25% (v/v) of Brij 96, at pH 7.4) on ice for 20 minutes. After centrifugation for 3 minutes at 14000 g (4° C.) the supernatants were collected and used for HMG-CoA reductase activity assay. The total 150 l assay mixture contained 100-200 g protein and the NADPH-generating system (2.5 mM NADP, 20 mM glucose 6-phosphate and 20 U/ml glucose 6-phosphate dehydrogenase). The reaction was started by adding substrate (^14C-HMG-CoA, 0.1 Ci) and stopped after 45 minutes by adding 10-1 of HCl 6M. ^3H-mevalonolactone was also added to the samples as an extraction recovery marker. After an additional 30 minutes incubation time, to allow complete lactonization of the product, the mixture was centrifuged. The supernatant was applied to Bond-Elut NH2 column and eluted with 1 ml of toluene/acetone (3:1). The eluate was discarded and further 4 ml of toluene/acetone was applied to the column and collected in a scintillation vial for counting ^14C-mevalonate and ^3H-mevalonolactone signals (Berkhout et al., 1990).\nIn separate experiments cells were disrupted by sonication and then treated with procaine. The direct effect of the treatment on HMG-CoA reductase activity in the homogenates was determined as described above.", "note": "Structures can show the parent of a compound that is named as a salt."}
{"molecule": "CCN(CC)CCOC(=O)c1ccc(N)cc1", "note": "[SP01, procaine HCl]", "values": [{"measurement": "direct effect on HMG-CoA reductase activity", "result": "No direct effect"}, {"measurement": "HMG-CoA reductase activity", "setting": "1 μM procaine", "result": "9.9±0.01", "unit": "pmol/min/mg protein"}, {"measurement": "HMG-CoA reductase activity", "setting": "10 μM procaine", "result": "10.3±0.6", "unit": "pmol/min/mg protein"}, {"measurement": "HMG-CoA reductase activity", "setting": "100 μM procaine", "result": "10.1±0.1", "unit": "pmol/min/mg protein"}]}
